Measured values published in patent publication US20090311237A1, “Combination therapy using a soluble hyaluronidase and a bisphosphonate” (priority 2008, published 2009).
“And” between values parts separate entries of the source, which are not always exact repeats. Identical values can stand only once.

Assay: Phase 1 Stage 1 clinical pharmacokinetics of SC ZA co-administered with rHuPH20
Type: in vivo, human
Conditions: for MAT (mean absorption time = SC MRT − IV MRT) / MAT, Mean for the dose group / MAT, Median for the dose group: 100 mL, 24000 Units rHuPH20
Procedure: A pharmacokinetic study of zoledronic acid (ZA) co-administered with rHuPH20 in human subjects was conducted. The primary objective of the study was to determine the bioavailability of zoledronic acid dosed via subcutaneous (SC) co-administration with human recombinant hyaluronidase PH20 (rHuPH20). […] The patients were administered the prescribed dosage formulations as follows: Cohorts 1-5 were administered a single subcutaneous infusion in a dosage volume of 100 ml at a rate of 3 mL/min. […] The dosing solution is administered via needle or catheter into the SC space of the left anterior thigh (midway between the anterior iliac crest and the cephalad border of the patella). For cohorts 1-5, the dosing solutions were administered by a controlled rate infusion pump at approximately 3 mL/minute. […] The dosing solutions were administered by syringe push bolus injection. […] Serum concentration of ZA was determined using a qualified LC-MS-MS assay after derivatization with diazomethane (Zhu, L S et al. (2006) Rapid Commun. […] The assay range was from 2.0 to 400 ng/mL with a lower limit of quantitation (LLOQ) at 2.0 ng/mL. […] Non-compartmental analysis was used for derivation of primary and secondary pharmacokinetic (PK) parameters. […] Summary statistics (mean, standard deviation, and median) were calculated using JMP or Microsoft Excel.

[1] = Subj 51, ZA […] SC, inf 0.251 hr, PH20 6024 U
[2] = Subj 63, ZA 0.0820 mg/kg SC, inf […], PH20 6000 U
[3] = Subj 67, ZA 0.0717 mg/kg SC, inf […], PH20 2880 U
[4] = Subj 68, ZA 0.0608 mg/kg SC, inf […], PH20 2880 U
[5] = Subj 70, ZA 0.0776 mg/kg SC, inf […], PH20 2928 U
[6] = Subj 71, ZA 0.0781 mg/kg SC, inf […], PH20 6000 U
[7] = Subj 74, ZA 0.0794 mg/kg SC, inf […], PH20 6000 U
[8] = Subj 77, ZA […] SC, inf […], PH20 6000 U
[9] = ZA 0.25 mg SC + 24000 U rHuPH20, individual subjects
[10] = ZA 0.25 mg SC + 24000 U rHuPH20, mean, n=3
[11] = ZA 0.25 mg SC + 24000 U rHuPH20, median, n=3
[12] = ZA 0.5 mg SC + 24000 U rHuPH20, individual subjects
[13] = ZA 0.5 mg SC + 24000 U rHuPH20, mean, n=3
[14] = ZA 0.5 mg SC + 24000 U rHuPH20, median, n=3
[15] = ZA 1 mg SC + 24000 U rHuPH20, individual subjects
[16] = ZA 1 mg SC + 24000 U rHuPH20, mean, n=3
[17] = ZA 1 mg SC + 24000 U rHuPH20, median, n=3
[18] = ZA 2 mg SC + 24000 U rHuPH20, individual subjects

In the case of `O=P(O)(O)C(O)(Cn1ccnc1)P(=O)(O)O` [ZA, 1-hydroxy-2-(1H-imidazol-1-yl)ethylidene-1,1-bisphosphonic acid], the Vss [1] is reported as 1.27627 L/kg, the Vz [1] is reported as 3.04413 L/kg and the “AUC (0-inf)/D” value [2] is reported as 0.008077 kg·h/mL. The CL [2] was 2.0635 mL/min/kg, the Cmax/D [2] was 0.002037 kg/mL and the Vss [2] was 1.473 L/kg. For the same molecule, the Vz [2] was 3.66662 L/kg, the “AUC (0-inf)/D” value [3] was 0.01012 kg·h/mL and the CL [3] was 1.648 mL/min/kg. It also gave a Cmax/D [3] of 0.002176 kg/mL, a Vss [3] of 1.03944 L/kg and a Vz [3] of 2.6134 L/kg. The “AUC (0-inf)/D” value [4] was 0.01035 kg·h/mL, the CL [4] was 1.61 mL/min/kg and the Cmax/D [4] was 0.002368 kg/mL. The Vss [4] was 1.59221 L/kg, the Vz [4] was 3.88814 L/kg and the “AUC (0-inf)/D” value [5] was 0.008898 kg·h/mL. For the same molecule, the CL [5] was 1.873 mL/min/kg, the Cmax/D [5] was 0.002771 kg/mL and the Vss [5] was 0.98673 L/kg. For the same molecule, the Vz [5] was 3.15269 L/kg, the “AUC (0-inf)/D” value [6] was 0.008873 kg·h/mL and the CL [6] was 1.8783 mL/min/kg. It also gave a Cmax/D [6] of 0.002535 kg/mL, a Vss [6] of 0.87424 L/kg and a Vz [6] of 3.12259 L/kg. The “AUC (0-inf)/D” value [7] was 0.006994 kg·h/mL, the CL [7] was 2.3828 mL/min/kg and the Cmax/D [7] was 0.001511 kg/mL. The Vss [7] was 1.84253 L/kg, the Vz [7] was 4.88924 L/kg and the “AUC (0-inf)/D” value [8] was 0.008412 kg·h/mL. It also gave a CL [8] of 1.9812 mL/min/kg, a Cmax/D [8] of 0.001824 kg/mL and a Vss [8] of 1.60873 L/kg. The Vz [8] was 4.21769 L/kg, the “AUC (0-12h)” value [9] was 29.30 ng·h/mL and the “AUC (0-∞)” value [9] was 30.00 ng·h/mL and 31.77 ng·h/mL. The “AUC (0-∞)/D” value [9] was 0.00926 kg·h/mL and 0.00674 kg·h/mL and 0.00971 kg·h/mL, the Cmax/D [9] was 0.00205 kg/mL and 0.00174 kg/mL and 0.00173 kg/mL and the MRT [9] was 4.21 h. For the same molecule, the T½elim [9] was 1.88 h and 2.44 h and 2.10 h, the “AUC (0-∞)/D” value [10] was 0.00857 kg·h/mL and the Cmax/D [10] was 0.00184 kg/mL. The T½elim [10] was 2.14 h, the “AUC (0-∞)/D” value [11] was 0.00926 kg·h/mL and the Cmax/D [11] was 0.00174 kg/mL. For the same molecule, the T½elim [11] was 2.10 h, the “MAT (mean absorption time = SC MRT − IV MRT)” value (ZA 0.25 mg SC, individual subjects) was 1.47 h and 1.03 h and 2.31 h and the “MAT, Mean for the dose group” value (ZA 0.25 mg SC, n=3) was 1.60 h. The “MAT, Median for the dose group” value (ZA 0.25 mg SC, n=3) was 1.47 h, the “AUC (0-12h)” value [12] was 66.33 ng·h/mL and the “AUC (0-∞)” value [12] was 68.26 ng·h/mL. For the same molecule, the “AUC (0-∞)/D” value [12] was 0.00709 kg·h/mL and 0.00766 kg·h/mL and 0.00968 kg·h/mL, the Cmax/D [12] was 0.00174 kg/mL and 0.00192 kg/mL and 0.00214 kg/mL and the MRT [12] was 3.35 h. For the same molecule, the T½elim [12] was 2.24 h and 2.27 h (2×), the “AUC (0-∞)/D” value [13] was 0.00814 kg·h/mL and the Cmax/D [13] was 0.00193 kg/mL. For the same molecule, the T½elim [13] was 2.26 h, the “AUC (0-∞)/D” value [14] was 0.00766 kg·h/mL and the Cmax/D [14] was 0.00192 kg/mL. The T½elim [14] was 2.27 h, the “MAT (mean absorption time = SC MRT − IV MRT)” value (ZA 0.5 mg SC, individual subjects) was 1.00 h and 1.11 h and the “MAT, Mean for the dose group” value (ZA 0.5 mg SC, n=3) was 1.03 h. For the same molecule, the “MAT, Median for the dose group” value (ZA 0.5 mg SC, n=3) was 1.00 h, the “AUC (0-12h)” value [15] was 137.25 ng·h/mL and the “AUC (0-∞)” value [15] was 158.68 ng·h/mL. The “AUC (0-∞)/D” value [15] was 0.00701 kg·h/mL and 0.01176 kg·h/mL and 0.00624 kg·h/mL, the Cmax/D [15] was 0.00174 kg/mL and 0.00247 kg/mL and 0.00128 kg/mL and the MRT [15] was 6.25 h. For the same molecule, the Tmax [15] was 0.73 h, the T½elim [15] was 12.87 h and 13.95 h and 8.85 h and the “AUC (0-∞)/D” value [16] was 0.00834 kg·h/mL. The Cmax/D [16] was 0.00183 kg/mL, the T½elim [16] was 11.89 h and the “AUC (0-∞)/D” value [17] was 0.00701 kg·h/mL. For the same molecule, the Cmax/D [17] was 0.00174 kg/mL, the T½elim [17] was 12.87 h and the “MAT (mean absorption time = SC MRT − IV MRT)” value (ZA 1 mg SC, individual subjects) was 1.41 h and 1.00 h. For the same molecule, the “MAT, Mean for the dose group” value (ZA 1 mg SC, n=3) was 1.36 h, the “MAT, Median for the dose group” value (ZA 1 mg SC, n=3) was 1.41 h and the “AUC (0-12h)” value [18] was 213.87 ng·h/mL and 236.51 ng·h/mL. The “AUC (0-∞)” value [18] was 245.47 ng·h/mL and 293.51 ng·h/mL, the “AUC (0-∞)/D” value [18] was 0.00739 kg·h/mL and 0.00809 kg·h/mL and 0.00825 kg·h/mL and the Cmax/D [18] was 0.00188 kg/mL and 0.00175 kg/mL and 0.00165 kg/mL. For the same molecule, the MRT [18] was 10.59 h.
